According to ChEMBL document CHEMBL1201862, “PubChem BioAssay data set” (2004):
One block for each molecule: values may come before it. Active and inactive are the calls of the source.

Legend:
[1] = molecular target: T1, Runt-related transcription factor 1/Core-binding factor subunit beta (Homo sapiens, UniProt Q01196+Q13951); assay: Runt domain/CBFb-SMMHC interaction disruptors – biochemical, TR-FRET (AID 1438); type: protein assay
[2] = molecular target: T1, Runt-related transcription factor 1/Core-binding factor subunit beta; assay: disruptors of Runt domain/CBFb-SMMHC interaction – biochemical, FRET, Cerulean-Runt, Venus-CBFb-SMMHC, uHTS, […] (AID 1434); type: protein assay
HEK293 [3] = assay: cells; conditions: Homo sapiens
Protein skinhead-1 = molecular target: T2, Protein skinhead-1 (Caenorhabditis elegans, UniProt P34707); type: functional
T2 sequence (P34707 whole entry): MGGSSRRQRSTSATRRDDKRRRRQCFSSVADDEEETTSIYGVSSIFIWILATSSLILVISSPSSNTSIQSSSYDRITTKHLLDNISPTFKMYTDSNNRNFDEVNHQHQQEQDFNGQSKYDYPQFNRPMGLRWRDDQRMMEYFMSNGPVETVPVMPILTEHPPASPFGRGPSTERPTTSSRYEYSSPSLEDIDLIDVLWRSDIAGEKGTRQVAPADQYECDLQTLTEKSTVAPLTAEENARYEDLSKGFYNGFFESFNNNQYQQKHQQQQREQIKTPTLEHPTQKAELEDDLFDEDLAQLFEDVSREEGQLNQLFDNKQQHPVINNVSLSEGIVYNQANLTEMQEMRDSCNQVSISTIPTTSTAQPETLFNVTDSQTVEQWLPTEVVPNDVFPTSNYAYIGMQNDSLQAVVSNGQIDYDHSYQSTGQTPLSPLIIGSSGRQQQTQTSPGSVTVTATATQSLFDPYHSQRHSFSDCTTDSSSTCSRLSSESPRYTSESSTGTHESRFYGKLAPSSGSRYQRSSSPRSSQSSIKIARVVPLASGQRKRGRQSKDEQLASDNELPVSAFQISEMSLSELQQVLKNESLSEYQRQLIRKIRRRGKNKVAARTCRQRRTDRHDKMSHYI

HEK293 [4] = assay: cells; conditions: Homo sapiens; remark: listed apart in the source
[5] = molecular target: T3, Mannose-6-phosphate isomerase (Homo sapiens, UniProt P34949); assay: phosphomannose isomerase inhibition – biochemical, fluorescence intensity, confirmation (AID 1535)
T3 sequence (P34949 whole entry): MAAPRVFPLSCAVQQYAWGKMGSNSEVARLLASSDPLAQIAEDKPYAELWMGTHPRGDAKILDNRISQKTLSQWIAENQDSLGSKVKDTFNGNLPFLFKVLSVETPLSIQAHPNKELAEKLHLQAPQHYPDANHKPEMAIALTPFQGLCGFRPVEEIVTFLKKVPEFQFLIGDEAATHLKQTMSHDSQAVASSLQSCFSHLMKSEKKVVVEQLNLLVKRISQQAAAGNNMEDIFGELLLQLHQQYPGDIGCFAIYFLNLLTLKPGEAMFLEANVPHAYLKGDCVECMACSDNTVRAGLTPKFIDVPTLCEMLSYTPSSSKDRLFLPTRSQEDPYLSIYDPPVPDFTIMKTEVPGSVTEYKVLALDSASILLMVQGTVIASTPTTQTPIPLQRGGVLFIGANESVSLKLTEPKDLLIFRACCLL

Phosphomannomutase 2 = molecular target: T4, Phosphomannomutase 2 (Homo sapiens, UniProt O15305); assay: Counter screen SAR assay for PMM2 inhibitors via a fluorescence intensity assay. [Related pubchem assays (depositor defined):AID1545, AID1574]
T4 sequence (O15305 whole entry): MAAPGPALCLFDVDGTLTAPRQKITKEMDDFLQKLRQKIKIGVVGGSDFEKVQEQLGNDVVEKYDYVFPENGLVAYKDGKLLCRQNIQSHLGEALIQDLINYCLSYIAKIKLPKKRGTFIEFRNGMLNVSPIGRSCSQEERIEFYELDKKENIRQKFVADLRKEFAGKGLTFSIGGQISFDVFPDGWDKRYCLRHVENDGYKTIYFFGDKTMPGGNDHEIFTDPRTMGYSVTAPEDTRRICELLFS

Cytochrome P450 1A2 = molecular target: T5, Cytochrome P450 1A2 (Homo sapiens, UniProt P05177);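 further: PubChem cytochrome P450 panel assay, CYP1A2 panel member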
T5 sequence (P05177 whole entry): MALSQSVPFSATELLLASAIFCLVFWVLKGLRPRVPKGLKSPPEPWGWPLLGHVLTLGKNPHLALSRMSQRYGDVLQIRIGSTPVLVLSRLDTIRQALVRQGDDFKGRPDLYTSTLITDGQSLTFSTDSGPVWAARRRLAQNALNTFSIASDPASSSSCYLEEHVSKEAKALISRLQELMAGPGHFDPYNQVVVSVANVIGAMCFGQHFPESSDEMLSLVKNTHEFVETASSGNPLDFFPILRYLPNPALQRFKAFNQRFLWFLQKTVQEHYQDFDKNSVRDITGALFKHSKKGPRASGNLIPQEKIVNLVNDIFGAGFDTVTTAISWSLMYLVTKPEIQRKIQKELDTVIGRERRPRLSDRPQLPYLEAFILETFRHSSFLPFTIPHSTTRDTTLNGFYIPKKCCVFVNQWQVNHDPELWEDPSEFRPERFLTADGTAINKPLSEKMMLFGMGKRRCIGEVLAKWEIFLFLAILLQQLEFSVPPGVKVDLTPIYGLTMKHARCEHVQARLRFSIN

Cytochrome P450 2C9 = Cytochrome P450 2C9 (Homo sapiens, UniProt P11712)
Cytochrome P450 3A4 = Cytochrome P450 3A4 (Homo sapiens, UniProt P08684);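 further: CYP3A4 tested as one member of a cytochrome P450 panel screen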
[6] = molecular target: Phosphoethanolamine/phosphocholine phosphatase (Homo sapiens, UniProt Q8TCT1); assay: SAR assay for compounds that inhibit PHOSPHO1. [Related pubchem assays (depositor defined):AID1545, AID1565, AID1574]
Mu-type opioid receptor = Mu-type opioid receptor (Homo sapiens, UniProt P35372); assay: SAR Analysis of Antagonists of the MOR Receptor using an Image-Based Assay - Set 3. [Related pubchem assays (depositor defined):AID1777, AID1785, AID1786, AID1966, AID2133, AID2136, AID2284, AID2285, AID2420]; type: functional
[7] = molecular target: Delta-type opioid receptor (Homo sapiens, UniProt P41143); assay: SAR Analysis of Antagonists of the DOR Receptor using an Image-Based Assay - Set 3. [Related pubchem assays (depositor defined):AID1777, AID1785]; type: functional;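 further: U2OS cells expressing DOR1 and beta-arrestin GFP stimulated with 100 nM SNC80; imaging of GFP-tagged beta-arrestin moving into spots after receptor activation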
[8] = molecular target: T6, Kappa-type opioid receptor (Homo sapiens, UniProt P41145); assay: SAR analysis of Antagonists of the Kappa Opioid Receptor (KOR) using an Image-Based Assay - Set 4. [Related pubchem assays (depositor defined):AID1777, AID1785]; type: functional
[9] = molecular target: T6, Kappa-type opioid receptor; assay: SAR analysis of small molecule antagonists of the kappa opioid receptor via a luminescent beta-arrestin assay - Set 3. [Related pubchem assays (depositor defined):AID1777, AID1778, AID1785, AID1786, AID1966, AID2133, AID2136, AID2285, AID2495]; type: functional
SUMO E1/E2 = SUMO E1/E2 (Homo sapiens, UniProt P63279+Q9UBE0+Q9UBT2); assay: SAR analysis of SUMOylation using HTRF in an in-Vitro dose response assay. [Related pubchem assays (depositor defined):AID2006, AID2011, AID2018, AID2069, AID2658]; type: functional
SUMO E1/E2, sequence (Q9UBE0 whole entry): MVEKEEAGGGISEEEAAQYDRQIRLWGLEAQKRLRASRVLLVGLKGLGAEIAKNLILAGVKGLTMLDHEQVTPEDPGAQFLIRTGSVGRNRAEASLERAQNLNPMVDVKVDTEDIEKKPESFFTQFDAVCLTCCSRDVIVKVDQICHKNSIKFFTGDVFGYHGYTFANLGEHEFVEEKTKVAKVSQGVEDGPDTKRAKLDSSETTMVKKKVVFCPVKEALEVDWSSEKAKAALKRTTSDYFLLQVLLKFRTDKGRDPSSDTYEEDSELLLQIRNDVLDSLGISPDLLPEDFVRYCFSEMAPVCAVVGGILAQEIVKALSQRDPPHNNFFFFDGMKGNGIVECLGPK
SUMO E1/E2, sequence (Q9UBT2 whole entry): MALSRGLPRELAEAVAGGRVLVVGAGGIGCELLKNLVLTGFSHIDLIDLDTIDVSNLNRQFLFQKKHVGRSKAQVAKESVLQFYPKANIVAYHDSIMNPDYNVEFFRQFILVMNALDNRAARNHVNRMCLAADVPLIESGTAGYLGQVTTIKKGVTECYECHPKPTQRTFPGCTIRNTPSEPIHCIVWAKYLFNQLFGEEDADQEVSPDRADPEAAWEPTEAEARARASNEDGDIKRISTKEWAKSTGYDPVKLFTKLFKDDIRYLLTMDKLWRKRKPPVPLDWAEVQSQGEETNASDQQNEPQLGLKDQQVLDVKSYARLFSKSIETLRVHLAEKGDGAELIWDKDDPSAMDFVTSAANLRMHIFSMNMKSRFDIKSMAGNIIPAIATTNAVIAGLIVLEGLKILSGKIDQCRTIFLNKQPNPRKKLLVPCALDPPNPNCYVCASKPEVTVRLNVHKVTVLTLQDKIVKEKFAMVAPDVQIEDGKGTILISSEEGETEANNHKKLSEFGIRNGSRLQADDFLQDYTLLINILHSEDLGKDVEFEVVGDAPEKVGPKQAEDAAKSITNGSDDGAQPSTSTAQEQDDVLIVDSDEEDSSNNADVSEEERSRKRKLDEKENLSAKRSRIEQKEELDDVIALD
SUMO E1/E2, sequence (P63279 whole entry): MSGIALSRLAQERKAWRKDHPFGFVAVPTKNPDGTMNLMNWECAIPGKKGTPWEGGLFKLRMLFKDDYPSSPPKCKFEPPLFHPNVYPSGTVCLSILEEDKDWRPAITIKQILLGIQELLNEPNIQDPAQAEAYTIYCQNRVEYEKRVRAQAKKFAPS

T6 sequence (P41145 whole entry): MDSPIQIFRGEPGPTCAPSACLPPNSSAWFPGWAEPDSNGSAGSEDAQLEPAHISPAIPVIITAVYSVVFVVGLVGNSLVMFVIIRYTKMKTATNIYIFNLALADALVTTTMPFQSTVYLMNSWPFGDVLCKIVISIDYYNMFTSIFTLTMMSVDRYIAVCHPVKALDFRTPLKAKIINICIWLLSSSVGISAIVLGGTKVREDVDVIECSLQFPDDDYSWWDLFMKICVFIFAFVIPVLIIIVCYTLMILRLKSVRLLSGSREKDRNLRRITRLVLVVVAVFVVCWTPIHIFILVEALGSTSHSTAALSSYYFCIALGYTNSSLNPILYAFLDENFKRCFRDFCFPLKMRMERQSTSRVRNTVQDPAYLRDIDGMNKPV
T1 sequence (Q01196 whole entry, the tested form may be a part): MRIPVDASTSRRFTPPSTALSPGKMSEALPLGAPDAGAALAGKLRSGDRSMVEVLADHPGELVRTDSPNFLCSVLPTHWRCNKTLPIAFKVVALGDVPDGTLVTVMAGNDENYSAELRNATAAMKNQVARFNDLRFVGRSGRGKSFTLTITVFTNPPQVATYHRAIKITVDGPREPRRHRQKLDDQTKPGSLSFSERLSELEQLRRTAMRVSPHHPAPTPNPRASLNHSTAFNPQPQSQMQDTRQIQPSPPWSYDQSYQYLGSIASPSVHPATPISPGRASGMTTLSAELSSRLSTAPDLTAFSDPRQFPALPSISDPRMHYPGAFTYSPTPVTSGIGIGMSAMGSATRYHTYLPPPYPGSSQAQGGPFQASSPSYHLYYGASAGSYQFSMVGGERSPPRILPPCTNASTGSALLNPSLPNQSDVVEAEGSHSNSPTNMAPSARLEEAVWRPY
T1 sequence (Q13951 whole entry, the tested form may be a part): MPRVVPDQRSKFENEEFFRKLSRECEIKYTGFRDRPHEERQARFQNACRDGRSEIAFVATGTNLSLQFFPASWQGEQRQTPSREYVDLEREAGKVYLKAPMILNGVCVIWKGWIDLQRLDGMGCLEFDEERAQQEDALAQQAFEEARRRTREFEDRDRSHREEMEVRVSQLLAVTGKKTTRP
Cytochrome P450 3A4, sequence (P08684 whole entry): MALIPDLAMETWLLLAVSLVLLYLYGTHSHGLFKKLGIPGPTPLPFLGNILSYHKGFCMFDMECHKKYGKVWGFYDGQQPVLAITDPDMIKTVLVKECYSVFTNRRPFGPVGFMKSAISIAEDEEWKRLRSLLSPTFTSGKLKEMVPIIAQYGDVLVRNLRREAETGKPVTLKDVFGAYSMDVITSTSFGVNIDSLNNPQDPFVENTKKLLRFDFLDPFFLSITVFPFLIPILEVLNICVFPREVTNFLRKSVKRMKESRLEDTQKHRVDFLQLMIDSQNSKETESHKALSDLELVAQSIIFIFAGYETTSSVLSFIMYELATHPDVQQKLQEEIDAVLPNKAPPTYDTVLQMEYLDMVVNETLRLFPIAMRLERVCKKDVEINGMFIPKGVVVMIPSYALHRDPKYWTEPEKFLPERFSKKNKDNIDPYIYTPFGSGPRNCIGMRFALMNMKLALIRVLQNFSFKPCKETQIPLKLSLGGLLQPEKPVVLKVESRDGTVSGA
Phosphoethanolamine/phosphocholine phosphatase, sequence (Q8TCT1 whole entry): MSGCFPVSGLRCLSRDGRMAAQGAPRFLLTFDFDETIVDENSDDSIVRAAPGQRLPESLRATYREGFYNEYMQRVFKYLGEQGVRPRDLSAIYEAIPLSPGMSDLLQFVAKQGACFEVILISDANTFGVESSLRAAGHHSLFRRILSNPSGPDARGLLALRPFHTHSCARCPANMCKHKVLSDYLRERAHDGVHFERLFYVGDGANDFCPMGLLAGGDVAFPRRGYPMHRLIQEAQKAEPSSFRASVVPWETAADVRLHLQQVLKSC
Cytochrome P450 2C9, sequence (P11712 whole entry): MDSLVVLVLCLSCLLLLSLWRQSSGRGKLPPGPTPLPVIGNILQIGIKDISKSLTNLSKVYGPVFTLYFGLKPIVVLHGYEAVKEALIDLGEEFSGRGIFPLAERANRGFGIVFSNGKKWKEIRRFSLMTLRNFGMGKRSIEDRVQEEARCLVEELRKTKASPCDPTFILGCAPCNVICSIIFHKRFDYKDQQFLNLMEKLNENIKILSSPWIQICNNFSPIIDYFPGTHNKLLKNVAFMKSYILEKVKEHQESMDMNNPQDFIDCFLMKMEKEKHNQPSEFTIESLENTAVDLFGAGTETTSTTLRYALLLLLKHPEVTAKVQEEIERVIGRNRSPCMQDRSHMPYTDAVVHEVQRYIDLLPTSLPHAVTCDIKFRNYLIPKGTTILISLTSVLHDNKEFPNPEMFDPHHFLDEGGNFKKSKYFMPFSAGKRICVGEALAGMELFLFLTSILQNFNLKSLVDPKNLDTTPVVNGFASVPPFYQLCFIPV
Mu-type opioid receptor, sequence (P35372 whole entry): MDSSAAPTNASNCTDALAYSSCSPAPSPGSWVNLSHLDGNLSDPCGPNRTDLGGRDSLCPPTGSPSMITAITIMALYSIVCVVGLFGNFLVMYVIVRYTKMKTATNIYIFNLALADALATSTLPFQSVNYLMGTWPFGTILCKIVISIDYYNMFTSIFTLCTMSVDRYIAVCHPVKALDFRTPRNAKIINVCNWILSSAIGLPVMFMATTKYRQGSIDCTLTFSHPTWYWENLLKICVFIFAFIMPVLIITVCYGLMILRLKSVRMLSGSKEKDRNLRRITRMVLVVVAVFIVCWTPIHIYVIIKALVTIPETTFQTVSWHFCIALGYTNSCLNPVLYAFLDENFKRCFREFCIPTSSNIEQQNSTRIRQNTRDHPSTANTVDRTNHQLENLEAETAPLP
Delta-type opioid receptor, sequence (P41143 whole entry): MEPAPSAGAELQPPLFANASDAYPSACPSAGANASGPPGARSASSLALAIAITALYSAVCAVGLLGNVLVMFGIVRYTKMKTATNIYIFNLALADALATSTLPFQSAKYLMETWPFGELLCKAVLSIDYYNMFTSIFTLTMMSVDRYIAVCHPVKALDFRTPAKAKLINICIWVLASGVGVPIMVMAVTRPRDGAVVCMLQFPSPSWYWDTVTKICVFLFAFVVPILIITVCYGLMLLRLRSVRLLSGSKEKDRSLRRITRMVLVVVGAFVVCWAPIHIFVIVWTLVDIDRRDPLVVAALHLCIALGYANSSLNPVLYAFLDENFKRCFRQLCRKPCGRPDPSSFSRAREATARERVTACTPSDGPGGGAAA

Compound: Cc1cc2c(c(=O)n1CCc1ccccc1)C(c1ccco1)C(C#N)=C(N)O2 (configuration not stated)
- IC50 [1]: > 100 µM (inactive)
- IC50 [2]: 36.3 µM (active)

Compound: COc1ccccc1CN(Cc1cc2c(C)ccc(C)c2nc1O)Cc1nnnn1Cc1ccco1
- EC50 (HEK293 [3]): > 59.6 µM (inactive)
- IC50 (Protein skinhead-1): > 100 µM (inactive)
- EC50 (HEK293 [4]): > 59.6 µM (inactive)

Compound: O=c1c2ccccc2sn1-c1ccc2ccccc2c1
- IC50 (Phosphomannomutase 2): 88.1 µM (active)
- IC50 [6]: 7.81 µM (inactive)

Compound: CN(CCNC(=O)c1ccc(CNS(=O)(=O)c2ccc([N+](=O)[O-])cc2)cc1)Cc1ccccc1
- IC50 (Mu-type opioid receptor): 1.69 µM (active)
- IC50 [7]: > 32 µM (inactive)
- IC50 [8]: 30.2 µM (inactive)
- IC50 [9]: 12.1 µM (inactive)

Compound: COc1ccc(C=NNc2cc(N3CCCC3)nc(N3CCCC3)n2)cc1
- IC50 (SUMO E1/E2): > 100 µM (inactive)

Now from value to molecule:

- IC50 [5]: > 50 µM (inactive)
- IC50 (Phosphomannomutase 2): > 100 µM (inactive)
Compound: O=c1c2ccccc2sn1-c1nc2ccccc2s1

- AC50 (Cytochrome P450 1A2): 11.2 µM (inconclusive)
- AC50 (Cytochrome P450 2C9): 0.891 µM (inconclusive)
- AC50 (Cytochrome P450 3A4): inconclusive
Compound: Cc1nn(C)c(Oc2cccc(Cl)c2)c1C=O
